Measured values as given in ChEMBL document CHEMBL1201862, “PubChem BioAssay data set” (2004).
Active and inactive are the calls of the source.

Tests used:
[1] = target: Nuclear receptor subfamily 0 group B member 1 (Homo sapiens, UniProt P51843); assay: Luminescence-based cell-based high throughput dose response assay for inhibitors of the orphan nuclear receptor subfamily 0, group B, member 1 (DAX1; NR0B1). [Related pubchem assays (depositor defined):AID504766, AID504790]; assay type: functional
Nuclear receptor subfamily 0 group B member 1, sequence (P51843 whole entry): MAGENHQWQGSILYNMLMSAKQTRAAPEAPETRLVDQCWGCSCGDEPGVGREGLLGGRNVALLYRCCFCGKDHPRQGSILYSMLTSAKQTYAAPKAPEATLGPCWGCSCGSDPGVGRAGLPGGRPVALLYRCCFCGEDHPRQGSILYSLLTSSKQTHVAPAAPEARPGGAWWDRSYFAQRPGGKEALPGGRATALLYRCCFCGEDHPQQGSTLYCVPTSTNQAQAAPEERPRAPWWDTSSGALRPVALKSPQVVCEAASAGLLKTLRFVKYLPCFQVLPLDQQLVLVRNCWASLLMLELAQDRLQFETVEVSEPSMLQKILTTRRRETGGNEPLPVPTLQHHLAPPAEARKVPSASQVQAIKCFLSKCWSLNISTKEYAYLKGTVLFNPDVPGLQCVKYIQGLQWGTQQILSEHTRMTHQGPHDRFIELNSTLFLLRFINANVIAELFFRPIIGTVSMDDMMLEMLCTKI

[2] = system: HEK293; assay: cells; assay type: functional, cell-based; conditions: Homo sapiens
[3] = target: T1, Hexokinase-1 (Homo sapiens, UniProt P19367); assay: SAR analysis of small molecule inhibitors of hexokinase domain containing I (HKDC1) in the hexokinase 1 selectivity assay. [Related pubchem assays (depositor defined):AID493160, AID493190]; assay type: functional
T1 sequence (P19367 whole entry): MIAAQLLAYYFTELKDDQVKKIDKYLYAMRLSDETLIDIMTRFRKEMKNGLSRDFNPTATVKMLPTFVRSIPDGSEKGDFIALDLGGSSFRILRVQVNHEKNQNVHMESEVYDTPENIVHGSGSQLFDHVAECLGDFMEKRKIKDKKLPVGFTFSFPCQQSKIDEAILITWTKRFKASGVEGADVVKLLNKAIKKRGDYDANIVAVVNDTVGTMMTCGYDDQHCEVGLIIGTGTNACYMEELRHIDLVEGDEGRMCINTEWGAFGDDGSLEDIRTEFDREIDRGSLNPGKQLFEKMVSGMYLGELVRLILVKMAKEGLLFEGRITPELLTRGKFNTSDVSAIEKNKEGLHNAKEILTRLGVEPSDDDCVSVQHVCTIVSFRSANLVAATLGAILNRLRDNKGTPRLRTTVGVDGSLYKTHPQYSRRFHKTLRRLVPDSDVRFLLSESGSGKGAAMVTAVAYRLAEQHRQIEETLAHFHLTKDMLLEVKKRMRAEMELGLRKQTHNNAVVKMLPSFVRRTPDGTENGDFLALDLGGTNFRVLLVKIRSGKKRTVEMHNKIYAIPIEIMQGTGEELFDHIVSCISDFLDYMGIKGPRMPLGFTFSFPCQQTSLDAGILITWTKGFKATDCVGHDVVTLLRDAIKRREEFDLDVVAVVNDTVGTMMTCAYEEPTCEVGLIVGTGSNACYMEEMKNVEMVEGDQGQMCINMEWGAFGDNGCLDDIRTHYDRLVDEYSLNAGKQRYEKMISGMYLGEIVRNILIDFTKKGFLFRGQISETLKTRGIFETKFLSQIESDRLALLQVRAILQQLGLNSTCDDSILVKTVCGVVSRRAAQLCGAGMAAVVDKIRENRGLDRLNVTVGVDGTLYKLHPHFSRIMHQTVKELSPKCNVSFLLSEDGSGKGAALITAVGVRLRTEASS

[4] = target: T2, Hexokinase HKDC1 (Homo sapiens, UniProt Q2TB90); assay: SAR analysis of small molecule inhibitors of hexokinase domain containing I (HKDC1). [Related pubchem assays (depositor defined):AID493160, AID493190]; assay type: functional
T2 sequence (Q2TB90 whole entry): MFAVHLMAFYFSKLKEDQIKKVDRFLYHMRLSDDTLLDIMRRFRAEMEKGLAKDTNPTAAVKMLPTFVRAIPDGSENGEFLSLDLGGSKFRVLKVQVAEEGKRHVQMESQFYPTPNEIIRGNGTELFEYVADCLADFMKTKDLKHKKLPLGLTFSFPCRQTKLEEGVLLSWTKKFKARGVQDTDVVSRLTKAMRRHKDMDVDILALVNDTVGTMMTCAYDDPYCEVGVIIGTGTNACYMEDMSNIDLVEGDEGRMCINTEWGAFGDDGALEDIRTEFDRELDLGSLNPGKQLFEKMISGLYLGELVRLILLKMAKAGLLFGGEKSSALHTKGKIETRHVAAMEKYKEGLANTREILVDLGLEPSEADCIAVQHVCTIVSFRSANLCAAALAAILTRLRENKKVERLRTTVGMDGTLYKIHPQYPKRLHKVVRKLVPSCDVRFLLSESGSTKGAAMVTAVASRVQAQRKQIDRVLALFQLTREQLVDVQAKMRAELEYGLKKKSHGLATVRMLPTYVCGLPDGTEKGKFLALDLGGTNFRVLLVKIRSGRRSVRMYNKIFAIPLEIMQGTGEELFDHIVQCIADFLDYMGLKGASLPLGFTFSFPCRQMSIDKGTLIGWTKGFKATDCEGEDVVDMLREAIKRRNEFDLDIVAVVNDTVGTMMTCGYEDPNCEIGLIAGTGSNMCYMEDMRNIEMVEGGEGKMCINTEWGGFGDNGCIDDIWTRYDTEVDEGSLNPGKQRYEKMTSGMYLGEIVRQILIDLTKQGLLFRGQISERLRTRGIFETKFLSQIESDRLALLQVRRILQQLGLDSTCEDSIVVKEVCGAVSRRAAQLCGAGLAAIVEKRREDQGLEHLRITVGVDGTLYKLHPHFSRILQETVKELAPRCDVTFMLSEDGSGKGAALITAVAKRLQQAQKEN

[5] = Luminescence-based cell-based high throughput dose response assay to identify activators of the DAF-12 from the parasite S. stercoralis (ssDAF-12).; assay type: functional
[6] = target: T3, Oxysterols receptor LXR-beta (Homo sapiens, UniProt P55055); assay type: functional, cell-based;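 also: Cell-based luminescence dose-response assay of agonist activity at LXR, run as a confirmatory counterscreen to a daf-12 agonist screen; HEK293 cells with Gal4-LXR fusion and GAL4-driven luciferase reporter; agonist potency from rising luciferase signal of a Gal4-LXR reporter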
T3 sequence (P55055 whole entry): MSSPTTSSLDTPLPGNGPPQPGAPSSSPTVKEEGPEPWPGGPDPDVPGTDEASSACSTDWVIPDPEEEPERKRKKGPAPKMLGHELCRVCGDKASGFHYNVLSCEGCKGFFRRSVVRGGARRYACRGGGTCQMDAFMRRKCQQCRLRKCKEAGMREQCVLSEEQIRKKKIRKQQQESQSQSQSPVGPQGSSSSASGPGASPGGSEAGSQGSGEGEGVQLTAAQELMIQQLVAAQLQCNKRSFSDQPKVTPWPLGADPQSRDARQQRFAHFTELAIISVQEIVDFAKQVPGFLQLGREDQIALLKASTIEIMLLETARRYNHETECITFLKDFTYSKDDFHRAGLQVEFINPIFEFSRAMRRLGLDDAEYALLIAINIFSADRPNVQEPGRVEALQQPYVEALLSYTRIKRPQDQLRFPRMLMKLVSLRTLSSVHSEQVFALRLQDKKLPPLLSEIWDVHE

[7] = target: ATP-dependent molecular chaperone HSP82 (Candida albicans (strain WO-1) (Yeast), UniProt C4YTQ8); assay: loss of DOC-induced GRE-beta-galactosidase reporter signal, dose response, Hsp90 inhibitor project, S. cerevisiae, luminescence (AID 2400); assay type: functional, cell-based;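 also: beta-galactosidase luminescence from glucocorticoid response element reporter as proxy for Hsp90 function; inhibitor potency where signal loss means Hsp90 inhibition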
ATP-dependent molecular chaperone HSP82, sequence (C4YTQ8 whole entry): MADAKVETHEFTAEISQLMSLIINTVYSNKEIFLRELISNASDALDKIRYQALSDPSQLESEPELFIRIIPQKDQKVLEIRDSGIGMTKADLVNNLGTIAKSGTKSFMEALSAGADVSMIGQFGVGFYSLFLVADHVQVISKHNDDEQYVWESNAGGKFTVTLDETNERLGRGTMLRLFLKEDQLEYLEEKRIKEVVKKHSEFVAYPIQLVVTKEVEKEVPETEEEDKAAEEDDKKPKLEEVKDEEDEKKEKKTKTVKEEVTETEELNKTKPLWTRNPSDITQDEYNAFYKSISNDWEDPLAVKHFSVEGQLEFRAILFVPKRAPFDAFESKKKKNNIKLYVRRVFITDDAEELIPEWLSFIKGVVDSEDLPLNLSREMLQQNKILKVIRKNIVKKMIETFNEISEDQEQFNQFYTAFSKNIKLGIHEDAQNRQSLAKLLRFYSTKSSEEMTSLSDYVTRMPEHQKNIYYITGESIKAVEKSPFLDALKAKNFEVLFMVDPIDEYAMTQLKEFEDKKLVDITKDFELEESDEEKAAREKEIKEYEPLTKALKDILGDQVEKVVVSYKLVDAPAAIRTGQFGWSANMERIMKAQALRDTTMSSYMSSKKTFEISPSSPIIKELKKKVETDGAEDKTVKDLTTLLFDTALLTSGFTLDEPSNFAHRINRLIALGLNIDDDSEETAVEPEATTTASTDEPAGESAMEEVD

[8] = cells
[9] = target: Serine/threonine-protein phosphatase (Candida dubliniensis (strain CD36 / CBS 7987 / NCPF 3949 / NRRLY-17841) (Yeast), UniProt B9W6M3); assay: calcineurin pathway inhibitors in yeast reporter, dose response, S. cerevisiae, CDRE-lacZ, luminescence, secondary (AID 2388); assay type: functional, cell-based;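 also: yeast reporter cells carrying a calcineurin-responsive lacZ construct stimulated with calcium chloride; luminescent beta-galactosidase reporter signal in whole cells rather than isolated phosphatase activity; potency for inhibition where a drop in reporter signal means calcineurin blockade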
Serine/threonine-protein phosphatase, sequence (B9W6M3 whole entry): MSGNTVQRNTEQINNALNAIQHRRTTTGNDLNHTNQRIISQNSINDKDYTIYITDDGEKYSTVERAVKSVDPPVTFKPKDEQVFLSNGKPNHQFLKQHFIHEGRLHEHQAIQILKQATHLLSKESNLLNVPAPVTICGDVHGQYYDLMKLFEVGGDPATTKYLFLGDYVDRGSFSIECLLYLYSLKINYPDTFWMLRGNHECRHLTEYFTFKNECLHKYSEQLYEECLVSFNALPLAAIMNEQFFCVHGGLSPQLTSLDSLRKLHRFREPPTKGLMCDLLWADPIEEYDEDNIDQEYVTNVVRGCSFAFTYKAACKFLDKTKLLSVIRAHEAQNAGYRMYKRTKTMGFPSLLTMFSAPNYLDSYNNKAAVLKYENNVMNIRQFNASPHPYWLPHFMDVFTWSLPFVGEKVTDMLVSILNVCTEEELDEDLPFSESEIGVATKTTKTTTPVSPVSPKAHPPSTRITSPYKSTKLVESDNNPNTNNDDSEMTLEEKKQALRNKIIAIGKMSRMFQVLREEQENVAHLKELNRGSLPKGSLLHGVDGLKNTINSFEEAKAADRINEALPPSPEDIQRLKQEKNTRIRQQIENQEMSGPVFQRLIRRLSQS

[10] = C. albicans growth with fluconazole, confirmation, fluorescence, retest (AID 2467); assay type: functional, cell-based
[11] = NIH-3T3 fibroblast cytotoxicity, dose response, cytotoxicity control, cell-based, fluorescence, Alamar Blue, secondary assay (AID 2327); assay type: functional;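 also: NIH-3T3 mouse fibroblasts cultured with fluconazole at 8 µg/mL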
[12] = system: A-375; assay: A375 melanoma cell viability reduction, dose response, counter-screen for MITF modulator project, cherry-pick samples, set 2 (AID 540335); assay type: functional, cell-based; conditions: Homo sapiens
[13] = growth suppression of beta-catenin-knockout colon cells, dose response, cell-based, HCT116, human colon tumor (AID 1045); assay type: functional;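 also: HCT116 colon tumor cells with beta catenin knocked out; cells exposed to compound for 60 hours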
[14] = target: T4, Microphthalmia-associated transcription factor (Homo sapiens, UniProt O75030); assay: TRPM1 promoter luciferase signal decrease, dose response, MITF inhibitor project, cell-based, SK-MEL-5, cherry-picked, set 3 (AID 493073); assay type: functional
T4 sequence (O75030 whole entry): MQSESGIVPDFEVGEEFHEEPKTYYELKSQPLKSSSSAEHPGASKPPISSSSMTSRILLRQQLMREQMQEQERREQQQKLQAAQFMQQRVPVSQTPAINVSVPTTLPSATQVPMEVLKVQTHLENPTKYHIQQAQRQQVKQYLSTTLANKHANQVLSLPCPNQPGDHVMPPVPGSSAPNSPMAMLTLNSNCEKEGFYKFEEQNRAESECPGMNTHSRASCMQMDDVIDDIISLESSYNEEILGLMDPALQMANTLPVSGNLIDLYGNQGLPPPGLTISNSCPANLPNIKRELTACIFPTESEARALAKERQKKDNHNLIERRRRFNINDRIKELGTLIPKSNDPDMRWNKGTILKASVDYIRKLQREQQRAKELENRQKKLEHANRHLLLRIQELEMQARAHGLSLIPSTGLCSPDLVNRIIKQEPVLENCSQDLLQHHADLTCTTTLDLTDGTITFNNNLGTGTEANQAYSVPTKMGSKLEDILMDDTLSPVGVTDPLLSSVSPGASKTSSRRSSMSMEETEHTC

[15] = system: INS1; assay: beta cell apoptosis inhibitors, cytokine rescue, dose response, luminescence, retest (AID 449756); assay type: functional, cell-based; conditions: Rattus norvegicus;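 also: cell death triggered by IL-1 beta plus TNF-alpha plus IFN-gamma mixture; protective hits raise ATP signal compared with cytokine alone wells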
[16] = growth suppression of PTEN-null colon cells, dose response, cell-based, HCT116 PTEN knockout (AID 1047); assay type: functional;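 also: HCT116 colon tumor cells with PTEN knocked out; cells exposed to compound for 60 hours before readout; potency for loss of cell viability measured by luminescence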
[17] = microbe, parasite or virus in culture; assay type: functional; conditions: Mycobacterium tuberculosis
[18] = target: T2, Hexokinase HKDC1; assay: HKDC1 hexokinase inhibitors, SAR follow-up, biochemical, set 2 (AID 588355); assay type: functional
[19] = target: T5, Replicative DNA helicase DnaB (Mycobacterium tuberculosis, UniProt P9WMR3); assay: DnaB intein splicing inhibitors, dose response, biochemical, cell-free fluorescence (AID 449749); assay type: functional
T5 sequence (P9WMR3 whole entry): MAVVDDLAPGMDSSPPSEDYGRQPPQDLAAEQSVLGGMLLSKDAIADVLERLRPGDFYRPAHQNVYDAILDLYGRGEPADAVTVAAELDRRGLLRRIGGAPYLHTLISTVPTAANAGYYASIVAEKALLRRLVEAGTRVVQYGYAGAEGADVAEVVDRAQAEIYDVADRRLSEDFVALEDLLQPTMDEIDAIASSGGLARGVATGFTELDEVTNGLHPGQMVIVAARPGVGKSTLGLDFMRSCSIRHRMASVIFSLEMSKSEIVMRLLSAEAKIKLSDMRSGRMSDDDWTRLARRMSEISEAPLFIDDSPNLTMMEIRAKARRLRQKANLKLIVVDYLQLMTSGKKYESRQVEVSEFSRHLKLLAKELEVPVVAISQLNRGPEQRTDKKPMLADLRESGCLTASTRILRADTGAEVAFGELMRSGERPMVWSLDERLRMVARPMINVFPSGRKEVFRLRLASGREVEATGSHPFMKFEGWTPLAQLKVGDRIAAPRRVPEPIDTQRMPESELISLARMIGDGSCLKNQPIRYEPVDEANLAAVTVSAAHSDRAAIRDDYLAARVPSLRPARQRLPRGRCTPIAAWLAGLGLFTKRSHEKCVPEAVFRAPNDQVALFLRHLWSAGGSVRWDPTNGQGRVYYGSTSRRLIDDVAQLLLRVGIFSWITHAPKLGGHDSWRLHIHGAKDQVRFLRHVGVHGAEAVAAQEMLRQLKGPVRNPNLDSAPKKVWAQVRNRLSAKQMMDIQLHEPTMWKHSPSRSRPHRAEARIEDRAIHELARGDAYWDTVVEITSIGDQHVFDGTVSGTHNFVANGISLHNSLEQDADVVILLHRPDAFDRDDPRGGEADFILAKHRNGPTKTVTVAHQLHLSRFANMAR

[20] = target: T6, Protein RecA (Mycobacterium tuberculosis, UniProt P9WHJ3); assay: Fluorescence Cell-Free Homogeneous Dose Retest to Identify Inhibitors of RecA-Intein Splicing Activity. [Related pubchem assays (depositor defined):AID2097, AID2223, AID489010, AID492950]; assay type: functional
T6 sequence (P9WHJ3 whole entry): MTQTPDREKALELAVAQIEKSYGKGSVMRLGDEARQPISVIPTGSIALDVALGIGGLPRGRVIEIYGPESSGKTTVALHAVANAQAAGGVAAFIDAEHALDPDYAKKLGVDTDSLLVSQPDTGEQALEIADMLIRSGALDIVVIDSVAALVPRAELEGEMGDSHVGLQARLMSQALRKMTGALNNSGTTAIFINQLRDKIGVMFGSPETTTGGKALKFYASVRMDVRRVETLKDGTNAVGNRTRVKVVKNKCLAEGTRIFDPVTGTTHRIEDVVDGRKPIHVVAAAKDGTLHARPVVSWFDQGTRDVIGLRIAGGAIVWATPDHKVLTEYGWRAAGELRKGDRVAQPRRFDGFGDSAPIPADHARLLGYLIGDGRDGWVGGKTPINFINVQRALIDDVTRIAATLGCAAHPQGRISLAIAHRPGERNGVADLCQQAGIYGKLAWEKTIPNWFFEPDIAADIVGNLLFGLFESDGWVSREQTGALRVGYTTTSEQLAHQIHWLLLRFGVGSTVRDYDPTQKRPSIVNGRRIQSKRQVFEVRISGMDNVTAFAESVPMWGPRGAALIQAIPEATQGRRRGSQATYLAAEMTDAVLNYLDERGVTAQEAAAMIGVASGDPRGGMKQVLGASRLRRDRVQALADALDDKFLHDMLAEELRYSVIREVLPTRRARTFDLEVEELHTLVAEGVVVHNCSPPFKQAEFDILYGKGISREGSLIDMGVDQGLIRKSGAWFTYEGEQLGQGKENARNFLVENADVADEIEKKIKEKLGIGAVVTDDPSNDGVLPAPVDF

[21] = target: T1, Hexokinase-1; assay: HK1 enzyme inhibition by HKDC1 hits, SAR follow-up, selectivity assay for HKDC1 inhibitor project, biochemical, set 2, resazurin fluorescence coupled readout (AID 588356); assay type: functional
[22] = target: T2, Hexokinase HKDC1; assay: HKDC1 hexokinase inhibitors, dose response, biochemical, W721R variant (AID 504729); assay type: functional
[23] = target: Cystic fibrosis transmembrane conductance regulator/Golgi-associated PDZ and coiled-coil motif-containing protein (Homo sapiens, UniProt P13569+Q9HD26); assay: CAL PDZ peptide-binding inhibitors, dose response, biochemical, fluorescence polarization, Cerulean-tagged CAL PDZ, cherry-picks (AID 504773)
Cystic fibrosis transmembrane conductance regulator/Golgi-associated PDZ and coiled-coil motif-containing protein, sequence (P13569 whole entry, other chains not shown): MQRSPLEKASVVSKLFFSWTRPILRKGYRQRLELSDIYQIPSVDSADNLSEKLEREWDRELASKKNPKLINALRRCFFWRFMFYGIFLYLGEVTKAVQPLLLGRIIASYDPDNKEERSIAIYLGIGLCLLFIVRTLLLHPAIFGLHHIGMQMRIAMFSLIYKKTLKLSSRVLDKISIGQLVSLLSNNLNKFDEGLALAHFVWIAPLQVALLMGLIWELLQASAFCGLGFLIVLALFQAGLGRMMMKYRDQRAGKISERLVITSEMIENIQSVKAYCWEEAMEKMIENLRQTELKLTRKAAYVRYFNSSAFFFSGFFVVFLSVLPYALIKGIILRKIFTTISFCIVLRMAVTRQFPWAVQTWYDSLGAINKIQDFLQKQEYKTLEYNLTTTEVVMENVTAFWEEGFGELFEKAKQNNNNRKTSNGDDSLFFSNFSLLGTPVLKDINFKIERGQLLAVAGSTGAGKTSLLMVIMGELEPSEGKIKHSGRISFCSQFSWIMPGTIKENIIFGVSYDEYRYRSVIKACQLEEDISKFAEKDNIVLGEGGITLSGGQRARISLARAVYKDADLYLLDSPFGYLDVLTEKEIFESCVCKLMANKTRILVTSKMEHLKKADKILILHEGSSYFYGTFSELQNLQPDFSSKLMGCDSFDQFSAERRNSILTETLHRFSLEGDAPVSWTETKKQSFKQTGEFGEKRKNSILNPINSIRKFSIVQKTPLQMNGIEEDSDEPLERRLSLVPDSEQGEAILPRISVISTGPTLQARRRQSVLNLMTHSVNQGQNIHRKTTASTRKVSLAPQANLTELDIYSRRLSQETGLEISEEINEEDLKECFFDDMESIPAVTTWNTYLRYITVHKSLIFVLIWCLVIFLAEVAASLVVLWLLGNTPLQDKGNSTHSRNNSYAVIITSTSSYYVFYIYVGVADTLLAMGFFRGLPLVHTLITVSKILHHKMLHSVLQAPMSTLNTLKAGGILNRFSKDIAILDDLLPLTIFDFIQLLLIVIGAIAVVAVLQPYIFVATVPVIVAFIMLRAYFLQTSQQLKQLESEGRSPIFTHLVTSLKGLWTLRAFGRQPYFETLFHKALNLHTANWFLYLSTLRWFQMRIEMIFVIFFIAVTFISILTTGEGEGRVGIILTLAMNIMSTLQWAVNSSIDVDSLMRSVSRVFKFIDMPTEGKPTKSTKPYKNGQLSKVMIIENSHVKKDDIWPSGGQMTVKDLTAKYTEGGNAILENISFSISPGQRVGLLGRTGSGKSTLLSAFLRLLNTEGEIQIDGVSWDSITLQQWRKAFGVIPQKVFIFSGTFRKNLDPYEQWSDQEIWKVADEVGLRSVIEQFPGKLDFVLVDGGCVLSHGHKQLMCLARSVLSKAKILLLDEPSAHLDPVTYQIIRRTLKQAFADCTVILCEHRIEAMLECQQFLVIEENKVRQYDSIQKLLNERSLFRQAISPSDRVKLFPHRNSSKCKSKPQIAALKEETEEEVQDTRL

O=C(c1ccc(Br)cc1)c1coc2ccc(O)cc12
inactive: IC50 [1] > 67.5 µM | IC50 [2] > 67.5 µM

Cc1ccccc1/C=C\c1nc2ccccc2c(=O)n1Cc1ccccc1
inactive: IC50 [3] > 80 µM | IC50 [4] > 80 µM

CN1/C(=C/C(=O)c2cccs2)Sc2ccccc21
active: EC50 [10] 2.02 µM | EC50 [11] 14.7 µM
inactive: IC50 [5] > 67.5 µM | EC50 [6] > 67.5 µM | EC50 [7] > 150 µM | EC50 [8] > 67.5 µM | EC50 [9] > 180 µM

CC1CCC(C(C)C)C(OC(=O)Cn2c(-c3ccc(F)cc3)[n+](C)c3ccccc32)C1 (stereo not drawn)
active: AC50 [12] 47.2 µM | EC50 [13] 4.18 µM | AC50 [14] 5.57 µM | AC50 [15] 3.69 µM | EC50 [16] 4.98 µM | CC50 [17] 40 µM

CCOc1ccc2c(c1)C(NC(C)=O)C(=O)N2CCN1CCOCC1 (stereo not drawn)
inactive: IC50 [21] > 80 µM
active: IC50 [18] 8.44 µM | AC50 [19] 27.8 µM | EC50 [20] 12.6 µM | IC50 [22] 6.63 µM | AC50 [23] 27.3 µM
